Assay results reported in patent publication US9101613B2, “Methods for treating neurological disease” (Neurim Pharmaceuticals (1991) Ltd., priority 2006, dated 2015).

Assays:
mice = assay: Rotarod assay, interaction with diazepam;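 note: Success means running more than 120 min on the rod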; type: in vivo; conditions: Diazepam 1.5 mg/kg p.o. + Vehicle i.p.; 15 rpm
Procedure: The incidences of animals running more than […] on the rotating rod were noted, and significances were calculated by non-parametric x^2 test. 8 mice/group were used.
The rotarod apparatus is divided into five test zones, so that up to five mice may be tested at the same time. The rod has been specially machined to provide a suitable grip for the animal. The diameter of the rod is 3.5 cm. The rotation speed was 15 rpm. When the animal falls off the rotating rod, it presses a button to record automatically the time spent on the rod. On the day before the experiment the mice were trained to run on the rod rotating with 15 rpm. Diazepam was administered orally 60 min before the rotarod assay, test substances were administered intraperitoneally 15 min before testing.

MT-1 receptor = molecular target: T1, MT-1 receptor (Homo sapiens, UniProt P48039); assay: 125I-melatonin binding in membranes of CHP-K1 cells, MT-1; conditions: 0.05 nM 125I-melatonin; for IC50 / Ki: 25° C., 3 hours; for IC50: read-out: MT-1 receptor binding IC50; for Ki: read-out: MT-1 receptor binding KI; for inhibition at 10 µM: read-out: MT-1 receptor binding % inhibition by 10 μM
T1 construct: expressed in transfected cells; host or cells: CHP-K1 (Chinese hamster ovary) cells (so in the source)
T1 sequence (P48039 whole entry): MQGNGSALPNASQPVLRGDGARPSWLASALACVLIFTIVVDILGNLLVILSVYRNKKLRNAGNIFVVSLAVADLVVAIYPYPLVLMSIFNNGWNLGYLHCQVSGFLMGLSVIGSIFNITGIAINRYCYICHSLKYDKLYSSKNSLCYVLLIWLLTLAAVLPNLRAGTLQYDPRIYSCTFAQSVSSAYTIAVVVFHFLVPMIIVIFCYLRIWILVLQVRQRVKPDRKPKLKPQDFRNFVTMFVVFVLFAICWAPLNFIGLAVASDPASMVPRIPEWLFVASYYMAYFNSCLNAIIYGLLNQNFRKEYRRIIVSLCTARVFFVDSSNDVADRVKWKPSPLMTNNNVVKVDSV
Procedure: (§1) Aliquots of suspended membranes of human recombinant CHP-K1 (Chinese hamster ovary) cells stably expressing human melatonin-1 or melatonin-2 (MT-1 or MT-2) receptors or of hamster brain (MT-3) were incubated at 25° C. with 0.05 nM ^125I-melatonin in buffer (25 mM HEPES, pH 7.4, 5 mM MgCl2, 1 mM CaCl2, 0.5% BSA) or with 0.1 nM for MT-3 alone or in the presence of 1 nM, 10 nM, 0.1 μM, 1 μM and 10 μM of test substances N-[2-(5-methoxy-indol-3-yl)-ethyl]-commenamide, N-[2-(5-methoxy-indol-3-yl)-ethyl]-comanilamide, N-[2-(5-methoxy-indol-3-yl)-ethyl]-coumalylamide, N-[2-(5-methoxy-indol-3-yl)-ethyl]-2-methoxy-commenamide, N-[2-(5-methoxy-indol-3-yl)-ethyl]-chelidonamide, O-[2-(5-methoxy-indol-3-yl)-ethyl]-comenic ester, N-[2-(5-methoxy-indol-3-yl)-ethyl]-2-Pyrone-6-carboxamide and N-[2-(2-bromo-5-methoxy-indol-3-yl)-ethyl]-coumalylamide for 3 hours for MT-1, 4 hours for MT-2 and 30 min for MT-3. The binding reaction was terminated and the membranes were washed with 4 ml of ice-cold HEPES buffer by vacuum filtration. Membranes were then collected, and the filters containing the bound ^125I-melatonin were assayed for the amount of radioactivity in a […]. Non-specific binding was evaluated using a reaction with 1 μM 6-chloromelatonin (MT-1 and MT-2) or 30 μM melatonin (MT-3).

MT-2 receptor = molecular target: T2, MT-2 receptor (Homo sapiens, UniProt P49286); assay: 125I-melatonin binding in membranes of CHP-K1 cells, MT-2; conditions: 0.05 nM 125I-melatonin; for IC50 / Ki: 25° C., 4 hours; for IC50: read-out: MT-2 receptor binding IC50; for Ki: read-out: MT-2 receptor binding KI; for inhibition at 10 µM: read-out: MT-2 receptor binding % inhibition by 10 μM
T2 construct: expressed in transfected cells; host or cells: CHP-K1 (Chinese hamster ovary) cells (so in the source)
T2 sequence (P49286 1-362): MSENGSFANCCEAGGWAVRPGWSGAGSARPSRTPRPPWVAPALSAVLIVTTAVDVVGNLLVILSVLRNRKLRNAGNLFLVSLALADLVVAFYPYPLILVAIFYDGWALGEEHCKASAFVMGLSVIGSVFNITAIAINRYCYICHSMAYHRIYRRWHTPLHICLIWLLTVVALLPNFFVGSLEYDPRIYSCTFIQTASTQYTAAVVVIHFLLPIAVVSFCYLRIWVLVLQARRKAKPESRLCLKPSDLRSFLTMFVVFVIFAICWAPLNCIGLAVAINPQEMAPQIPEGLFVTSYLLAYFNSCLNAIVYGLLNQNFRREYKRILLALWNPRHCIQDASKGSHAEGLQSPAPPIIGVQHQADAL
Procedure: as §1

3T3-L1 adipocytes = assay: 2-[3H]-deoxy-d-glucose uptake in FFA-treated 3T3-L1 adipocyte model; type: cell-based
Procedure: Adipocytes were glucose-starved for 1 h in Hepes-salt buffer containing 2% FFA-free BSA. FFA (free fatty acids) were then added to the cells at the indicated concentrations (300 μM) for the indicated times (3 h). 10 min before the end of the FFA treatment, the cells were stimulated with insulin (20 nM)/melatonin (10 nM)/test compounds (10 nM) at 37° C. 2-[^3H]-deoxy-d-glucose at 1 μCi/mL and 0.1 mM unlabeled 2-deoxyglucose in KRP-HEPES buffer was added and cells were incubated for 10 min at room temperature. Non-specific glucose uptake was measured by parallel incubations in the presence of 10 μM cytochalasin B, which blocks transporter-mediated glucose uptake, and was subtracted from total uptake in each assay. Cells were then washed three times with ice-cold phosphate buffered saline (PBS) and solubilized in 1M NaOH for 20 minutes. The sample was then counted using a scintillation counter. 2-[^3H]-deoxy-d-glucose uptake was assayed in triplicates for each condition in at least 3 independent experiments. 2-[^3H]-deoxy-d-glucose uptake (counts per minute-cpm) are presented as mean+SE of triplicates in a representative experiment or results of three independent experiments. ANOVA test was used with significance of P<0.05 (Table 7).

CD1 mice = assay: Potentiation of hexobarbital-Na sleep time in mice; type: in vivo
Procedure: CD1 mice were divided randomly into groups of seven mice each. The mice in each group were administered intraperitoneally a dose of one of the following: 100 mg/kg of one of test substances O-[2-(5-methoxy-indol-3-yl)-ethyl]-comenic ester, N-[2-(5-methoxyindol-3-yl)-ethyl]-commenamide, N-[2-(5-methoxy-indol-3-yl)-ethyl]-coumalylamide, N-[2-(5-methoxy-indol-3-yl)-ethyl]-chelidonamide, N-[2-(5-methoxy-indol-3-yl)-ethyl]-comanilamide or N-[2-(5-methoxy-indol-3-yl)-ethyl]-2-methoxy-commenamide in saline (0.1 ml/10 g body weight), or saline alone. Fifteen minutes later the mice received a dose of 50 mg/kg of hexobarbital-Na intravenously. Sleep time was measured in each animal as the time from loss to recovery of the righting reflex.

[1] = tested on: rat primary cortical neurons; assay: Neurite outgrowth in rat primary cortical neurons; type: cell-based; conditions: 5 days of culture
Procedure: The aim of this study was to assess the potential effect of N-[2-(5-methoxy-indol-3-yl)-ethyl]-comanilamide (100 nM) after 5 days of culture on neurite outgrowth in rat primary cortical neurons. The study used three separate cultures (n=6 wells per condition); the mean value of the 3 cultures (+/−sem) was calculated.
Rat cortical neurons were cultured as described by Singer et al., 1999. Briefly pregnant female rats of 15 days gestation are killed by cervical dislocation (Rats Wistar; Janvier) and the fetuses removed from the uterus. The cortex are removed and placed in ice-cold medium of Leibovitz (L15; Invitrogen) containing 1% of Penicillin-Streptomycin (PS; Invitrogen) and 1% of bovine serum albumin (BSA; Sigma). Cortex are dissociated by trypsinisation for 20 min at 37° C. (Trypsin EDTA 1×; Invitrogen) diluted in PBS without calcium and magnesium. The reaction is stopped by the addition of Dulbecco's modified Eagle's medium (DMEM; Invitrogen) containing DNAase I grade II (0.1 mg/ml; Roche Diagnostic) and 10% of fetal calf serum (FCS; Invitrogen). Cells are then mechanically dissociated by 3 passages through a 10 ml pipette. Cells are then centrifuged at 180×g for 10 min at 10° C. The supernatant is discarded and the cells of pellet are re-suspended in a defined culture medium consisting of Neurobasal (Invitrogen) supplemented with B27 (2%; Invitrogen), L-glutamine (0.2 mM; Invitrogen) and 1% of PS solution with 10 ng/ml of Brain-derived neurotrophic factor (BDNF).
For the neurite outgrowth assay, the cells are seed with test compound A (at 100 nM) and reference compound (BDNF at 10 ng/ml used as reference control) on defined medium (Neurobasal supplemented with 2% of B27, 0.2 mM of L-glutamine and 1% of PS).
The cultures were done (a) without BDNF in order to analyse the neurotrophic effect of compounds alone and (b) with low BDNF concentration (0.5 ng/ml) in order to analyse the synergic neurotrophic effect of N-[2-(5-methoxy-indol-3-yl)-ethyl]-comanilamide with the growth factor.
After 5 days of culture in presence of N-[2-(5-methoxy-indol-3-yl)-ethyl]-comanilamide and reference, cells were fixed by a cool solution of ethanol (95%) and acetic acid (5%) for 10 min. After permeabilization with 0.1% of saponin, cells were incubated with monoclonal antibody anti microtubule associated protein 2 (MAP-2; Sigma). This antibody stains specifically cell bodies and neurite of neurons. […] Nuclei of neurons were labeled by a fluorescent marker (Hoechst solution, SIGMA). Per well, 20 pictures were taken using InCell Analyzer™ 1000 (GE Healthcare) with 20× magnification. All images were done in the same conditions. Analysis of the neuritis networks and neuron were assessed using Developer software (GE Healthcare). […]

Molecule: CN1C(=O)CN=C(c2ccccc2)c2cc(Cl)ccc21 [Diazepam, reference compound]
- Incidence of performance (rotarod) (mice): 6/8

Molecule: COc1ccc2[nH]c(Br)c(CCNC(=O)c3ccc(=O)oc3)c2c1 [N-[2-(2-bromo-5-methoxy-indol-3-yl)-ethyl]-coumalylamide]
- IC50 (MT-1 receptor): 2400 nM
- Ki (MT-1 receptor): 1250 nM
- inhibition at 10 µM (MT-1 receptor): 76%
- IC50 (MT-2 receptor): 850 nM
- Ki (MT-2 receptor): 441 nM
- inhibition at 10 µM (MT-2 receptor): 89%

Molecule: COc1ccc2[nH]cc(CCNC(=O)c3cccc(=O)o3)c2c1 [N-[2-(5-methoxy-indol-3-yl)-ethyl]-2-Pyrone-6-carboxamide]
- IC50 (MT-1 receptor): 10100 nM
- Ki (MT-1 receptor): 5240 nM
- inhibition at 10 µM (MT-1 receptor): 50%
- IC50 (MT-2 receptor): 5060 nM
- Ki (MT-2 receptor): 2630 nM
- inhibition at 10 µM (MT-2 receptor): 65%

Molecule: COc1ccc2[nH]cc(CCOC(=O)c3cc(=O)c(O)co3)c2c1 [O-[2-(5-methoxy-indole-3-yl)-ethyl]-comenic ester]
- 2-[3H]-deoxy-d-glucose uptake (cpm) (3T3-L1 adipocytes; Insulin 20 nM + FFA 300 μM (3 h) + substance 10 nM): 1787 cpm
- inhibition at 10 µM (MT-1 receptor): 47%
- effect on hexobarbital-Na narcosis time (CD1 mice; 100 mg/kg i.p.): significantly increased the hexobarbital-Na narcosis time
- Changes (%) vs. Vehicle (sleep time) (CD1 mice; 100 mg/kg i.p. 15 min before 50 mg/kg hexobarbital-Na i.v.): +108%
- Mean Sleep Time-Treatment (min) ± SE (CD1 mice; 100 mg/kg i.p. 15 min before 50 mg/kg hexobarbital-Na i.v., loss to recovery of righting reflex): 15.15 ± 6.02 min
- IC50 (MT-2 receptor): 1640 nM
- Ki (MT-2 receptor): 850 nM
- inhibition at 10 µM (MT-2 receptor): 78%

Molecule: Insulin
- 2-[3H]-deoxy-d-glucose uptake (cpm) (3T3-L1 adipocytes; Insulin (20 nM) alone, no FFA): 1839 cpm

B1: BDNF: Brain-derived neurotrophic factor, growth factor used as reference compound (protein, UniProt P23560 19-247, looked up)
Neurotrophic factor BDNF …: APMKEANIRGQGGLAYPGVRTHGTLESVNGPKAGSRGLTSLADTFEHVIEELLDEDQKVRPNEENNKDADLYTSRVMLSSQVPLEPPLLFLLEEYKNYLDAANMSMRVRRHSDPARRGELSVCDSISEWVTAADKKTAVDMSGGTVTVLEKVPVSKGQLKQYFYETKCNPMGYTKEGCRGIDKRHWNSQCRTTQSYVRALTMDSKKRIGWRFIRIDTSCVCTLTIKRGR
- neurite length, % of control ([1]; BDNF 0.5 ng/ml alone): ~125 % of control
- neurite length, % of control ([1]; BDNF 10 ng/ml reference): ~153 % of control
